Measurements reported in PubChem BioAssay (NCI).
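Protocol summary: plate cells (96-well), add compound at 5 concentrations, incubate 48 h, interpolate endpoints linearly. TGI is the concentration that stops growth completely.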

Key:
Test in all cases: DTP human tumour cell line panel, 48 h
OVCAR-4 ovarian = tested on: OVCAR-4 ovarian
K-562 leukemia = tested on: K-562 leukemia
NCI-H226 lung = tested on: NCI-H226 lung
UACC-257 melanoma = tested on: UACC-257 melanoma
SF-295 CNS = tested on: SF-295 CNS
MDA-MB-231 breast = tested on: MDA-MB-231 breast
HCT-116 colon = tested on: HCT-116 colon
M14 melanoma = tested on: M14 melanoma
NCI-H23 lung = tested on: NCI-H23 lung
SF-539 CNS = tested on: SF-539 CNS
PC-3 prostate = tested on: PC-3 prostate
T-47D breast = tested on: T-47D breast
MDA-N = tested on: MDA-N
SR leukemia = tested on: SR leukemia
HOP-62 NSCLC = tested on: HOP-62 NSCLC
OVCAR-5 ovarian = tested on: OVCAR-5 ovarian
NCI-H522 lung = tested on: NCI-H522 lung
SK-MEL-5 melanoma = tested on: SK-MEL-5 melanoma
SNB-75 CNS = tested on: SNB-75 CNS
HOP-92 NSCLC = tested on: HOP-92 NSCLC
NCI-H460 lung = tested on: NCI-H460 lung
SNB-19 CNS = tested on: SNB-19 CNS
OVCAR-3 ovarian = tested on: OVCAR-3 ovarian
786-0 renal = tested on: 786-0 renal
SK-MEL-2 melanoma = tested on: SK-MEL-2 melanoma
TK-10 renal = tested on: TK-10 renal
HS 578T breast = tested on: HS 578T breast
HT29 colon = tested on: HT29 colon
NCI/ADR-RES ovarian = tested on: NCI/ADR-RES ovarian
HCT-15 colon = tested on: HCT-15 colon
MALME-3M melanoma = tested on: MALME-3M melanoma
IGROV1 ovarian = tested on: IGROV1 ovarian
BT-549 breast = tested on: BT-549 breast
HCC-2998 colon = tested on: HCC-2998 colon
RXF 393 renal = tested on: RXF 393 renal
MCF7 breast = tested on: MCF7 breast
SK-MEL-28 melanoma = tested on: SK-MEL-28 melanoma
HL-60(TB) leukemia = tested on: HL-60(TB) leukemia
MOLT-4 leukemia = tested on: MOLT-4 leukemia
COLO 205 colon = tested on: COLO 205 colon
SF-268 CNS = tested on: SF-268 CNS
DU-145 prostate = tested on: DU-145 prostate
UACC-62 melanoma = tested on: UACC-62 melanoma
LOX IMVI melanoma = tested on: LOX IMVI melanoma
SW-620 colon = tested on: SW-620 colon
CCRF-CEM leukemia = tested on: CCRF-CEM leukemia
UO-31 renal = tested on: UO-31 renal
U251 CNS = tested on: U251 CNS
SN12C renal = tested on: SN12C renal
A498 renal = tested on: A498 renal
RPMI-8226 leukemia = tested on: RPMI-8226 leukemia
SK-OV-3 ovarian = tested on: SK-OV-3 ovarian
KM12 colon = tested on: KM12 colon
CAKI-1 renal = tested on: CAKI-1 renal
ACHN renal = tested on: ACHN renal
A549 NSCLC = tested on: A549 NSCLC
OVCAR-8 ovarian = tested on: OVCAR-8 ovarian
MDA-MB-435 = tested on: MDA-MB-435
EKVX NSCLC = tested on: EKVX NSCLC

Measured: TGI

Cc1ccc2nc3n(c2c1)C(c1c(F)cccc1F)SC3 (stereo unspecified)
> 100 µM: OVCAR-4 ovarian | K-562 leukemia | NCI-H226 lung | UACC-257 melanoma | SF-295 CNS | MDA-MB-231 breast | HCT-116 colon | M14 melanoma | NCI-H23 lung | SF-539 CNS | PC-3 prostate | T-47D breast | MDA-N | SR leukemia | HOP-62 NSCLC | OVCAR-5 ovarian | NCI-H522 lung | SK-MEL-5 melanoma | SNB-75 CNS | HOP-92 NSCLC | NCI-H460 lung | SNB-19 CNS | OVCAR-3 ovarian | 786-0 renal | SK-MEL-2 melanoma | TK-10 renal | HS 578T breast | HT29 colon | NCI/ADR-RES ovarian | HCT-15 colon | MALME-3M melanoma | IGROV1 ovarian | BT-549 breast | HCC-2998 colon | RXF 393 renal | MCF7 breast | SK-MEL-28 melanoma | HL-60(TB) leukemia | MOLT-4 leukemia | COLO 205 colon | SF-268 CNS | DU-145 prostate | UACC-62 melanoma | LOX IMVI melanoma | SW-620 colon | CCRF-CEM leukemia | UO-31 renal | U251 CNS | SN12C renal | A498 renal | RPMI-8226 leukemia | SK-OV-3 ovarian | KM12 colon | CAKI-1 renal | ACHN renal | A549 NSCLC

Cc1nc2c(=O)n(C)c(=O)n(C)c2o1
> 100 µM: OVCAR-4 ovarian | K-562 leukemia | NCI-H226 lung | UACC-257 melanoma | SF-295 CNS | OVCAR-8 ovarian | MDA-MB-231 breast | HCT-116 colon | M14 melanoma | NCI-H23 lung | SF-539 CNS | PC-3 prostate | T-47D breast | MDA-N | SR leukemia | HOP-62 NSCLC | OVCAR-5 ovarian | NCI-H522 lung | SK-MEL-5 melanoma | SNB-75 CNS | HOP-92 NSCLC | NCI-H460 lung | SNB-19 CNS | OVCAR-3 ovarian | 786-0 renal | SK-MEL-2 melanoma | TK-10 renal | HS 578T breast | HT29 colon | NCI/ADR-RES ovarian | HCT-15 colon | MALME-3M melanoma | IGROV1 ovarian | BT-549 breast | HCC-2998 colon | RXF 393 renal | MOLT-4 leukemia | COLO 205 colon | SF-268 CNS | UACC-62 melanoma | LOX IMVI melanoma | SW-620 colon | CCRF-CEM leukemia | UO-31 renal | U251 CNS | MDA-MB-435 | SN12C renal | A498 renal | RPMI-8226 leukemia | SK-OV-3 ovarian | EKVX NSCLC | KM12 colon | CAKI-1 renal | ACHN renal | A549 NSCLC

Fc1cc(-c2cc(-c3ccccc3)n[nH]2)c(Cl)cc1Cl
60.7 µM: SF-539 CNS
57.6 µM: MOLT-4 leukemia
> 100 µM: OVCAR-4 ovarian | NCI-H226 lung | UACC-257 melanoma | SF-295 CNS | OVCAR-8 ovarian | MDA-MB-231 breast | HCT-116 colon | M14 melanoma | NCI-H23 lung | PC-3 prostate | T-47D breast | MDA-N | SR leukemia | HOP-62 NSCLC | OVCAR-5 ovarian | NCI-H522 lung | SK-MEL-5 melanoma | SNB-75 CNS | HOP-92 NSCLC | NCI-H460 lung | SNB-19 CNS | OVCAR-3 ovarian | 786-0 renal | SK-MEL-2 melanoma | TK-10 renal | HS 578T breast | HT29 colon | NCI/ADR-RES ovarian | HCT-15 colon | MALME-3M melanoma | IGROV1 ovarian | BT-549 breast | RXF 393 renal | SK-MEL-28 melanoma | HL-60(TB) leukemia | COLO 205 colon | SF-268 CNS | DU-145 prostate | LOX IMVI melanoma | SW-620 colon | CCRF-CEM leukemia | UO-31 renal | U251 CNS | MDA-MB-435 | SN12C renal | RPMI-8226 leukemia | SK-OV-3 ovarian | EKVX NSCLC | KM12 colon | CAKI-1 renal | ACHN renal | A549 NSCLC
23.2 µM: K-562 leukemia
